Experimental data as given in publication PMC8395260, “Co-Aggregation of S100A9 with DOPA and Cyclen-Based Compounds Manifested in Amyloid Fibril Thickening without Altering Rates of Self-Assembly” (International Journal of Molecular Sciences, 2021).
Non-standard residues stand in square brackets, D forms with d. Residues, ends and D or L forms follow the SMILES beside them. Dopa = N[C@@H](Cc1ccc(O)c(O)c1)C(=O)O

Target: T1, S100A9 (Homo sapiens, UniProt P06702)
T1 construct: made in house; host or cells: E. coli
T1 sequence (P06702 1-114): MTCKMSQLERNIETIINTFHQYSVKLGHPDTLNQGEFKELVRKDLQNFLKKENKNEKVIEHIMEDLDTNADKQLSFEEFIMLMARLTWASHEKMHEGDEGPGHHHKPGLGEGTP
Assay: Titration of S100A9 with compounds followed by intrinsic fluorescence
Settings: intrinsic Trp 88 fluorescence, single binding site model; legend: 75 μM S100A9, PBS pH 7.4, 20 °C; method: 1 μM S100A9, 5 nM to 2.4 μM compound, 3 h room temperature; triplicates
Protocol: S100A9 was titrated by each compound of interest following the changes in intrinsic fluorescence intensity, since S100A9 has one aromatic residue: Trp 88. The fitting was performed using a single binding site model to determine the apparent dissociation constant for each compound. […] A twice larger Kd was determined only for DOPA-D-H-DOPA binding.
Figure 4 Binding of DOPA and cyclen-based compounds to native S100A9 followed by intrinsic fluorescence. (a–e) Normalized titrations of S100A9 by corresponding compounds. Each compound is indicated above corresponding figure (a–e) and their Kd in captions. Symbols indicate the experimental data points and lines the fitting with a single binding site model. 75 μM S100A9, PBS, pH 7.4, and 20 °C.
First, 1 μM S100A9 was incubated in PBS, pH 7.4, room temperature for 3 h in the absence or presence of 5 nM to 2.4 μM of the studied compounds prior to fluorescence measurements. The final volume was kept at 400 μL for all samples. The fluorescence emission spectra were recorded using a Jasco spectrofluorometer FP 6500 (Japan), setting the excitation at 296 nm and emission at 350 nm wavelengths, respectively, with a 3 nm band-width on both the excitation and emission. The measurements were performed in triplicates. Fitting of the normalized titration curves was performed by using a single site binding model.

apparent dissociation constant Kd | SMILES
sub-micromolar range | O=C(CN1CCNCCNCCNCC1)N[C@@H](Cc1ccc(O)c(O)c1)C(=O)O [DOPA-cyclen]
sub-micromolar range | O=C(O)CC[C@H](NC(=O)CN1CCNCCNCCNCC1)C(=O)N[C@@H](Cc1c[nH]cn1)C(=O)O [H-E-cyclen]

SMILES | apparent dissociation constant Kd
N[C@@H](Cc1ccc(O)c(O)c1)C(=O)N[C@@H](Cc1c[nH]cn1)C(=O)N[C@@H](Cc1c[nH]cn1)C(=O)N[C@@H](Cc1ccc(O)c(O)c1)C(=O)O [DOPA-H-H-DOPA] (H-[Dopa]HH[Dopa]-OH) | sub-micromolar range

Same assay, conditions: intrinsic Trp 88 fluorescence, single binding site model; legend: 75 μM S100A9, PBS pH 7.4, 20 °C; method: 1 μM S100A9, 5 nM to 2.4 μM compound, 3 h room temperature; triplicates; read-out: apparent dissociation constant Kd

Kd [nM] | SMILES
100 ± 40 | O=C(CN1CCNCCNCCNCC1)N[C@@H](Cc1ccc(O)c(O)c1)C(=O)O [DOPA-cyclen]
90 ± 50 | O=C(O)CC[C@H](NC(=O)CN1CCNCCNCCNCC1)C(=O)N[C@@H](Cc1c[nH]cn1)C(=O)O [H-E-cyclen]

Test system: not listed separately
Assay: ThT incubation of individual compounds (amyloid self-assembly of the compounds)
Format: physicochemical
Settings: 75 μM compound, PBS pH7.4, 42 °C, same period as S100A9 kinetics
Protocol: Figure S1. Time dependence of Thioflavin-T fluorescence changes during its incubation with S100A9 and DOPA and Cyclen-based compounds. Thioflavin-T fluorescence in arbitrary units is shown along y-axis, time in minutes – along x-axis. Increase in Thioflavin-T fluorescence in the presence of 75 μM S100A9 reflects its amyloid self-assembly and shown in brown. By contrast, there were no increase in Thioflavin-T fluorescence upon incubation with 75 μM of corresponding compounds as […]
green line, for DOPA-H-H-DOPA – by orange, DOPA-D-H – by chartreuse, H-E-Cyclen – by red and […]
assembly of these compounds under the conditions of our experiments. PBS, pH7.4 and 42 °C.
(1 picture or pasted object on this page, not shown here)

ThT fluorescence upon incubation of compound alone (amyloid self-assembly) | SMILES
flat lines close to zero | O=C(CN1CCNCCNCCNCC1)N[C@@H](Cc1ccc(O)c(O)c1)C(=O)O [DOPA-cyclen]
flat lines close to zero | O=C(O)CC[C@H](NC(=O)CN1CCNCCNCCNCC1)C(=O)N[C@@H](Cc1c[nH]cn1)C(=O)O [H-E-cyclen]

SMILES | ThT fluorescence upon incubation of compound alone (amyloid self-assembly)
N[C@@H](Cc1ccc(O)c(O)c1)C(=O)N[C@@H](Cc1c[nH]cn1)C(=O)N[C@@H](Cc1c[nH]cn1)C(=O)N[C@@H](Cc1ccc(O)c(O)c1)C(=O)O [DOPA-H-H-DOPA] (H-[Dopa]HH[Dopa]-OH) | flat lines close to zero

Test system: S100A9 amyloid fibrils
Assay: AFM imaging of S100A9 fibrils, fibril height distributions
Format: biochemical
Settings: molar ratio 1:1; PBS pH 7.4, 42 °C
Protocol: In order to complement the kinetic analysis, we also monitored the S100A9 amyloid formation by AFM imaging (Figure 3). The amyloid fibrils of S100A9 alone that developed after 100 h of incubation in PBS, pH 7.4, and 42 °C were very flexible, relatively short, i.e., within 200–600 nm length, and also characterized by a narrow distribution of the heights with a median at ca. 1.6 nm in the AFM cross-sections. In the presence of all DOPA-based compounds, the fibrils of S100A9 become thicker with median heights of ca. 2.0–2.2 nm, and generally longer (Figure 3). […] At the molar ratio of S100A9 to DOPA-based compounds of 1:10, the height of fibrils became even thicker, shifting towards 2.2–2.8 nm median height and in the case of DOPA-D-H-DOPA to 3.0–3.2 nm (Figure 3), while their lengths remained about the same as at the 1:1 molar ratio.
Figure 3 AFM imaging of S100A9 fibrils in the absence and presence of DOPA and cyclen-based compounds and the analysis of fibril height distributions. (a) Representative AFM image of S100A9 fibrils incubated alone. (b,c) Distribution of fibril heights measured in AFM cross-sections. The same distribution is shown in both columns to facilitate the comparison with the following height distributions carried out in the presence of compounds. (d,g,j,m,p) Representative AFM images of S100A9 fibrils in the presence of DOPA and cyclen-based compounds at a 1:1 molar ratio of S100A9 to compound. (e,h,k,n,q) Distributions of fibril heights measured in AFM cross-sections at the S100A9 to compound molar ratio of 1:1 and (f,i,l,o,r) at molar ratio of 1:10. Image sizes are 2.5 × 2.5 μm. The compounds and molar ratios are indicated above the figures. Samples were incubated for 50 h in PBS, pH 7.4, and 42 °C. […]
S100A9 protein was expressed in E. coli and purified as described previously. Freshly dissolved S100A9 in PBS, pH 7.4 was used in all measurements. Lyophilized S100A9 was dissolved on ice in PBS buffer at pH 7.4. Then, S100A9 samples were filtered using a 0.22 µm spin membrane filter to remove any preformed aggregates. These solutions were directly subjected to experiments. To produce amyloids, S100A9 was incubated in PBS, pH 7.4, and 42 °C. The cyclic compounds (Figure 1) were dissolved in PBS at pH 7.4, and their stock solutions were kept frozen prior to measurements.
AFM imaging was performed by using a BioScope Catalyst AFM (Bruker; Phoenix, AZ, USA), operating in a peak force mode in air. The scan rate was 0.51 Hz and the resolution was 512 × 512 pixels. Bruker MSLN and SLN cantilevers were used in all measurements. Imaging was also conducted using a PicoPlus AFM (Molecular Imaging), equipped with a 100 μm scanner, operating in tapping mode in air. The resonance frequency was set in 170 to 190 kHz range, scan rate of 1 Hz, and resolution of 512 × 512 pixels. […]

SMILES | S100A9 fibril morphology change (AFM)
O=C(O)CC[C@H](NC(=O)CN1CCNCCNCCNCC1)C(=O)N[C@@H](Cc1c[nH]cn1)C(=O)O [H-E-cyclen] | did not lead to thickening of amyloid fibrils

Same assay, conditions: molar ratio 1:10, text; S100A9 alone ca. 1.6 nm; PBS pH 7.4, 42 °C

SMILES | median height of S100A9 fibrils (AFM) [nm]
O=C(O)CC[C@H](NC(=O)CN1CCNCCNCCNCC1)C(=O)N[C@@H](Cc1c[nH]cn1)C(=O)O [H-E-cyclen] | 2.0

Target: T1, S100A9
Assay: ThT fluorescence kinetics of S100A9 amyloid formation in the presence of compounds
Format: biochemical
Settings: S100A9:compound 1:1; 75 μM S100A9, 20 µM ThT, PBS pH 7.4, 42 °C; isodesmic polymerization fit; triplicate
Text: The amyloid formation of S100A9 in the absence and presence of DOPA and cyclen-based compounds was monitored by ThT fluorescence and is presented in Figure 2. The amyloid formation correlates with the increase of the ThT fluorescence, and the initial parts of the fibrillation kinetic curves were fitted by using an isodesmic polymerization model to derive the kinetic rates; this model has previously been used in kinetic analysis of S100A9 amyloid self-assembly.
Figure 2 Kinetics of S100A9 amyloid formation in the absence and presence of DOPA and cyclen-based compounds monitored by ThT fluorescence. (a) Amyloid kinetics monitored at the ratio of S100A9 to corresponding compound of 1:1 and (b) 1:10, respectively. Symbols indicating the experimental data points for S100A9 alone or with respective compounds are shown in the caption and the corresponding lines indicate the fitting with the isodesmic polymerization model. The equation for isodesmic polymerization fitting is shown in ((b) inset). 75 μM S100A9, PBS, pH 7.4, and 42 °C.
ThT dye is known to bind specifically to β-sheet-containing amyloid structures and thus enables quantification of the kinetics of amyloid self-assembly. ThT assay was performed as described previously. First, 75 μM S100A9 was transferred into Nunc 96U black well plates with transparent bottoms and then 20 µM ThT was added to each well. The compounds dissolved in PBS were added to S100A9 solution with molar ratios of 1:1 and 1:10, respectively. Sample volumes were kept at 200 μL per well. The plates were immediately covered, placed into a Tecan F200 PRO plate reader, and incubated at 42 °C with 432 rpm orbital shaking every 10 min. ThT fluorescence was recorded every 10 min. Filters at 430 and 495 nm wavelengths with a 20 nm band width each were used for excitation and emission, respectively. Each sample was incubated in triplicate. ThT fluorescence intensities were normalized.

k, kinetic rate constant of S100A9 amyloid formation [M⁻¹ s⁻¹] | SMILES
62000 | O=C(CN1CCNCCNCCNCC1)N[C@@H](Cc1ccc(O)c(O)c1)C(=O)O [DOPA-cyclen]
69000 | O=C(O)CC[C@H](NC(=O)CN1CCNCCNCCNCC1)C(=O)N[C@@H](Cc1c[nH]cn1)C(=O)O [H-E-cyclen]

SMILES | k, kinetic rate constant of S100A9 amyloid formation [M⁻¹ s⁻¹]
N[C@@H](Cc1ccc(O)c(O)c1)C(=O)N[C@@H](Cc1c[nH]cn1)C(=O)N[C@@H](Cc1c[nH]cn1)C(=O)N[C@@H](Cc1ccc(O)c(O)c1)C(=O)O [DOPA-H-H-DOPA] (H-[Dopa]HH[Dopa]-OH) | 77000

Same assay, conditions: S100A9:compound 1:1; 75 μM S100A9, PBS pH 7.4, 42 °C

k/kS100A9 | SMILES
0.93 | O=C(CN1CCNCCNCCNCC1)N[C@@H](Cc1ccc(O)c(O)c1)C(=O)O [DOPA-cyclen]
1.05 | O=C(O)CC[C@H](NC(=O)CN1CCNCCNCCNCC1)C(=O)N[C@@H](Cc1c[nH]cn1)C(=O)O [H-E-cyclen]

SMILES | k/kS100A9
N[C@@H](Cc1ccc(O)c(O)c1)C(=O)N[C@@H](Cc1c[nH]cn1)C(=O)N[C@@H](Cc1c[nH]cn1)C(=O)N[C@@H](Cc1ccc(O)c(O)c1)C(=O)O [DOPA-H-H-DOPA] (H-[Dopa]HH[Dopa]-OH) | 1.17

Same assay, conditions: S100A9:compound 1:10; 75 μM S100A9, 20 µM ThT, PBS pH 7.4, 42 °C; isodesmic polymerization fit; triplicate

k, kinetic rate constant of S100A9 amyloid formation [M⁻¹ s⁻¹] | SMILES
133000 | O=C(CN1CCNCCNCCNCC1)N[C@@H](Cc1ccc(O)c(O)c1)C(=O)O [DOPA-cyclen]
48000 | O=C(O)CC[C@H](NC(=O)CN1CCNCCNCCNCC1)C(=O)N[C@@H](Cc1c[nH]cn1)C(=O)O [H-E-cyclen]

SMILES | k, kinetic rate constant of S100A9 amyloid formation [M⁻¹ s⁻¹]
N[C@@H](Cc1ccc(O)c(O)c1)C(=O)N[C@@H](Cc1c[nH]cn1)C(=O)N[C@@H](Cc1c[nH]cn1)C(=O)N[C@@H](Cc1ccc(O)c(O)c1)C(=O)O [DOPA-H-H-DOPA] (H-[Dopa]HH[Dopa]-OH) | 134000

Same assay, conditions: S100A9:compound 1:10; 75 μM S100A9, PBS pH 7.4, 42 °C

k/kS100A9 | SMILES
0.72 | O=C(O)CC[C@H](NC(=O)CN1CCNCCNCCNCC1)C(=O)N[C@@H](Cc1c[nH]cn1)C(=O)O [H-E-cyclen]
